These results are taken from US20230391774A1, “Novel Compounds” (AC Immune SA, priority 2020, published 2023).

pEC50: −log10 of the molar value. Where only a bound is given, the exact number is not on record here.

T1 sequence (P10636 1-441 isoform P10636-8): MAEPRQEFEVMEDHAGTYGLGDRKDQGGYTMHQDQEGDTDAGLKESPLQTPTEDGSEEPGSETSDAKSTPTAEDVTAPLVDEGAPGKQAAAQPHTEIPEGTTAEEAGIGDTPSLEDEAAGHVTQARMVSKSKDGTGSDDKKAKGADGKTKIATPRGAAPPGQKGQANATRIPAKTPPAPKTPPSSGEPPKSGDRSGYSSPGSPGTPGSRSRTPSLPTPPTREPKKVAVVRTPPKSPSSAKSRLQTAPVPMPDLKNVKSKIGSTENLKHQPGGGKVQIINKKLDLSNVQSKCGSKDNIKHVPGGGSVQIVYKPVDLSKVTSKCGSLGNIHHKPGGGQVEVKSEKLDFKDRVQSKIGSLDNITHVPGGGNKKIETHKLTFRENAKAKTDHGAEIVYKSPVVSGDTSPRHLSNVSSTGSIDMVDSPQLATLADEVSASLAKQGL

One assay has as its target T1, flTau aggregates (longest isoform of human Tau, 2N4R) (Homo sapiens, UniProt P10636).
T1 construct: 35 μM of recombinant full-length (fl) Tau in phosphate-buffered saline (PBS) were aggregated; purchased Biotechne; host or cells: bacteria
As to the kind of experiment: Full-length Tau (flTau) disaggregation assay by Thioflavin T (ThT). The conditions noted are these: ThT fluorescence; 60 nM flTau aggregates, 30 minutes at RT; read-out: flTau disaggregation EC50. Format: biochemical. How it is done: Full-Length Tau (flTau) Disaggregation Assay by Thioflavin T (ThT)
The longest isoform of human Tau (2N4R; 441 amino acids) was expressed in bacteria and purified (Biotechne). For the Tau disaggregation assay by ThT, 35 μM of recombinant full-length (fl) Tau in phosphate-buffered saline (PBS) were aggregated for 72 hours at 37° C. in presence of 35 μM of heparin (Sigma-Aldrich) and 10 mM of […] (Sigma-Aldrich) under shaking at 1000 RPM. Compound 1 was dissolved in anhydrous dimethyl sulfoxide (DMSO, Sigma-Aldrich) to reach a concentration of 2.5 mM. flTau aggregates and serial dilutions of compound 1 were mixed together in PBS (volume 50 μL) to a final concentration of 60 nM of flTau aggregates and from 20 to 0.0012 μM of Compound 1. The mixture was incubated for 30 minutes at room temperature (RT), then 40 μL of this mixture were transferred into a black 384-well plate assay (Perkin-Elmer) and mixed with 10 μL of 20 μM ThT in 250 mM glycine (both from Sigma-Aldrich) in PBS. Fluorescence (relative fluorescence units; RFU) was measured in monoplicate or duplicate on a Tecan reader (excitation: 440 nm; emission: 485 nm). Percentage of flTau disaggregation was then calculated and the half maximal effective concentration (EC50) was determined using GraphPad Prism version 8 (GraphPad Software) assuming a one-binding site fitting model, see Table 3 and Table 4.
`Fc1cccc2[nH]nc(C3CCN(c4ccc5oc(N6CCOCC6)nc5c4)CC3)c12` [Example 73, 5-(4-(4-fluoro-1H-indazol-3-yl)piperidin-1-yl)-2-morpholinobenzo[d]oxazole]: the pEC50 is 5.00 to 6.00. For `c1ccc2c(C3CCN(c4ccc5nc(N6CCOCC6)sc5n4)CC3)n[nH]c2c1` [Example 106, 4-(5-(4-(1H-indazol-3-yl)piperidin-1-yl)thiazolo[5,4-b]pyridin-2-yl)morpholine], the pEC50 is 5.00 to 6.00.

Turning to `Fc1cnc2[nH]cc(C3CCN(c4ccc5oc(N6CCOCC6)nc5c4)CC3)c2c1` [Example 22, 5-(4-(5-fluoro-1H-pyrrolo[2,3-b]pyridin-3-yl)piperidin-1-yl)-2-morpholinobenzo[d]oxazole], the negative logarithm of the EC50 (pEC50) was 5.00 to 6.00.

As for `Cn1cc(C2CCN(c3cc4nc(N5CCOCC5)oc4cn3)C2)c2cc(F)cnc21` (stereo not drawn) [Example 87, 6-(3-(5-fluoro-1-methyl-1H-pyrrolo[2,3-b]pyridin-3-yl)pyrrolidin-1-yl)-2-morpholinooxazolo[5,4-c]pyridine], the pEC50 is 5.00 to 6.00.

For the compound `c1ccc2c(C3CCN(c4cnc5oc(N6CCOCC6)nc5c4)CC3)n[nH]c2c1` [Example 49, 6-(4-(1H-indazol-3-yl)piperidin-1-yl)-2-morpholinooxazolo[5,4-b]pyridine], the pEC50 was 4.30 to 5.00. Same read-out and setting: for `Cn1cc(C2CCN(c3ccc4sc(N5CCOCC5)nc4c3)C2)c2cc(F)cnc21` (stereo not drawn) [Example 81, 4-(5-(3-(5-fluoro-1-methyl-1H-pyrrolo[2,3-b]pyridin-3-yl)pyrrolidin-1-yl)benzo[d]thiazol-2-yl)morpholine] the value was over 6.00; for `Cn1cc(C2CCN(c3cnc4oc(N5CCOCC5)nc4c3)C2)c2cc(F)cnc21` (stereo not drawn) [Example 84, 6-(3-(5-fluoro-1-methyl-1H-pyrrolo[2,3-b]pyridin-3-yl)pyrrolidin-1-yl)-2-morpholinooxazolo[5,4-b]pyridine], 5.00 to 6.00.

As to `Cn1cc(-c2ccc3oc(N4CCOCC4)nc3c2)c2cc(F)cnc21` [Example 3, 5-(5-fluoro-1-methyl-1H-pyrrolo[2,3-b]pyridin-3-yl)-2-morpholinobenzo[d]oxazole], the pEC50 was 5.00 to 6.00. For the compound `c1ccc2c(-c3ccn(-c4ccc5oc(N6CCOCC6)nc5c4)n3)c[nH]c2c1` [Example 11, 5-(3-(1H-indol-3-yl)-1H-pyrazol-1-yl)-2-morpholinobenzo[d]oxazole], the pEC50 was over 6.00. With `c1ccc2c(C3CCN(c4cnc5nc(N6CCOCC6)oc5c4)CC3)c[nH]c2c1` [Example 100, 6-(4-(1H-indol-3-yl)piperidin-1-yl)-2-morpholinooxazolo[4,5-b]pyridine], the pEC50 is 5.00 to 6.00. Consider `C1=C(c2c[nH]c3ccccc23)CCN(c2ccc3oc(N4CCOCC4)nc3c2)C1` [Example 107, 5-(4-(1H-indol-3-yl)-3,6-dihydropyridin-1(2H)-yl)-2-morpholinobenzo[d]oxazole], for which the negative logarithm of the EC50 (pEC50) was over 6.00. On to `c1ccc2c(-c3ccc4oc(N5CCOCC5)nc4c3)n[nH]c2c1` [Example 4, 5-(1H-indazol-3-yl)-2-morpholinobenzo[d]oxazole], for which the pEC50 is over 6.00. For the compound `Fc1ccc2[nH]nc(C3CCN(c4ccc5oc(N6CCOCC6)nc5c4)CC3)c2c1` [Example 61, 5-(4-(5-fluoro-1H-indazol-3-yl)piperidin-1-yl)-2-morpholinobenzo[d]oxazole], the pEC50 was 5.00 to 6.00. Consider `Cc1ccc2[nH]nc(C3CCN(c4ccc5oc(N6CCOCC6)nc5c4)CC3)c2c1` [Example 76, 5-(4-(5-methyl-1H-indazol-3-yl)piperidin-1-yl)-2-morpholinobenzo[d]oxazole], for which the negative logarithm of the EC50 (pEC50) is 5.00 to 6.00. Consider `Cn1cc(C2CCN(c3ccc4oc(N5CCOCC5)nc4c3)CC2)c2cccnc21` [Example 21, 5-(4-(1-methyl-1H-pyrrolo[2,3-b]pyridin-3-yl)piperidin-1-yl)-2-morpholinobenzo[d]oxazole], for which the pEC50 was 5.00 to 6.00. For the compound `O=C(Nc1ccc2oc(N3CCOCC3)nc2c1)c1c[nH]c2ncccc12` [Example 13, N-(2-morpholinobenzo[d]oxazol-5-yl)-1H-pyrrolo[2,3-b]pyridine-3-carboxamide], the negative logarithm of the EC50 (pEC50) is over 6.00. Regarding `c1ccc2c(-c3ccn(-c4ccc5oc(N6CCOCC6)nc5c4)n3)n[nH]c2c1` [Example 10, 5-(3-(1H-indazol-3-yl)-1H-pyrazol-1-yl)-2-morpholinobenzo[d]oxazole], the pEC50 is over 6.00.

As for `Cn1cc(C2CCN(c3ccc4oc(N5CCOCC5)nc4n3)C2)c2cc(F)cnc21` (stereo not drawn) [Example 90, 5-(3-(5-fluoro-1-methyl-1H-pyrrolo[2,3-b]pyridin-3-yl)pyrrolidin-1-yl)-2-morpholinooxazolo[4,5-b]pyridine], the pEC50 is over 6.00. Consider `Cn1cc(C2CCN(c3ccc4oc(N5CCOCC5)nc4n3)C2)c2cc(F)cnc21` (stereo not drawn) [Example 91, 5-(3-(5-fluoro-1-methyl-1H-pyrrolo[2,3-b]pyridin-3-yl)pyrrolidin-1-yl)-2-morpholinooxazolo[4,5-b]pyridine], for which the negative-log EC50 (pEC50) was over 6.00. As for `COC1CCN(c2nc3cc(N4CCC(c5cn(C)c6ncc(F)cc56)C4)ccc3o2)CC1` (stereo not drawn) [Example 96, 5-(3-(5-fluoro-1-methyl-1H-pyrrolo[2,3-b]pyridin-3-yl)pyrrolidin-1-yl)-2-(4-methoxypiperidin-1-yl)benzo[d]oxazole], the pEC50 was 5.00 to 6.00. Turning to `Cn1cc(C2CCN(c3cc4nc(N5CCOCC5)oc4cn3)C2)c2cc(F)cnc21` (stereo not drawn) [Example 86, 6-(3-(5-fluoro-1-methyl-1H-pyrrolo[2,3-b]pyridin-3-yl)pyrrolidin-1-yl)-2-morpholinooxazolo[5,4-c]pyridine], the pEC50 is 5.00 to 6.00. Same read-out and setting: the result for `c1ccc2c(C3CCN(c4ccc5oc(N6CCOCC6)nc5c4)C3)c[nH]c2c1` (stereo not drawn) [Example 40, 5-(3-(1H-indol-3-yl)pyrrolidin-1-yl)-2-morpholinobenzo[d]oxazole] reads over 6.00; that for `c1ccc2c(C3CCN(c4cnc5nc(N6CCOCC6)sc5c4)CC3)c[nH]c2c1` [Example 28, 4-(6-(4-(1H-indol-3-yl)piperidin-1-yl)thiazolo[4,5-b]pyridin-2-yl)morpholine], over 6.00; that for `FC1CN(c2ccc3oc(N4CCOCC4)nc3c2)CCC1c1n[nH]c2ccccc12` (stereo not drawn) [Example 94, 5-(3-fluoro-4-(1H-indazol-3-yl)piperidin-1-yl)-2-morpholinobenzo[d]oxazole], 5.00 to 6.00. `Cn1nc(C2CCN(c3ccc4oc(N5CCOCC5)nc4c3)CC2)c2cccnc21` [Example 31, 5-(4-(1-methyl-1H-pyrazolo[3,4-b]pyridin-3-yl)piperidin-1-yl)-2-morpholinobenzo[d]oxazole]: the pEC50 was 5.00 to 6.00. `O=C(Nc1ccc2oc(N3CCOCC3)nc2c1)c1c[nH]c2ccccc12` [Example 12, N-(2-morpholinobenzo[d]oxazol-5-yl)-1H-indole-3-carboxamide]: the pEC50 was over 6.00.

For the compound `c1ccc2c(C3CCN(c4cc5nc(N6CCOCC6)oc5cn4)CC3)c[nH]c2c1` [Example 48, 6-(4-(1H-indol-3-yl)piperidin-1-yl)-2-morpholinooxazolo[5,4-c]pyridine], the pEC50 is 5.00 to 6.00.

Regarding `COC1CCN(c2nc3cc(N4CCC(c5cn(C)c6ncc(F)cc56)C4)ccc3o2)CC1` (stereo not drawn) [Example 97, 5-(3-(5-fluoro-1-methyl-1H-pyrrolo[2,3-b]pyridin-3-yl)pyrrolidin-1-yl)-2-(4-methoxypiperidin-1-yl)benzo[d]oxazole], the pEC50 was 5.00 to 6.00. As to `Cn1cc(C2CCN(c3ccc4nc(N5CCOCC5)oc4c3)C2)c2cc(F)cnc21` (stereo not drawn) [Example 88, 6-(3-(5-fluoro-1-methyl-1H-pyrrolo[2,3-b]pyridin-3-yl)pyrrolidin-1-yl)-2-morpholinobenzo[d]oxazole], the pEC50 was over 6.00. On the same count and under the same terms, the result for `C(#Cc1c[nH]c2ccccc12)c1ccc2oc(N3CCOCC3)nc2c1` [Example 6, 5-((1H-indol-3-yl)ethynyl)-2-morpholinobenzo[d]oxazole] reads 5.00 to 6.00; that for `Cn1cc(C2CCN(c3ccc4oc(N5CCOCC5)nc4c3)CC2)c2ncc(F)cc21` [Example 105, 5-(4-(6-fluoro-1-methyl-1H-pyrrolo[3,2-b]pyridin-3-yl)piperidin-1-yl)-2-morpholinobenzo[d]oxazole], 4.30 to 5.00.

Still in this assay, the particulars now being: flTau disaggregation EC50, ThT fluorescence; 60 nM flTau aggregates, 30 minutes at RT.
For the compound `Cn1cc(C2CCN(c3ccc4oc(N5CC6CC(C5)O6)nc4c3)C2)c2cc(F)cnc21` (stereo not drawn) [Example 98, 3-(5-(3-(5-fluoro-1-methyl-1H-pyrrolo[2,3-b]pyridin-3-yl)pyrrolidin-1-yl)benzo[d]oxazol-2-yl)-6-oxa-3-azabicyclo[3.1.1]heptane], the pEC50 was 5.00 to 6.00.

Still in this assay, the particulars now being: read-out: flTau disaggregation EC50; ThT fluorescence; 60 nM flTau aggregates, 30 minutes at RT.
For `Cn1cc(C2CCN(c3ccc4oc(N5CC6CC(C5)O6)nc4c3)C2)c2cc(F)cnc21` (stereo not drawn) [Example 99, 3-(5-(3-(5-fluoro-1-methyl-1H-pyrrolo[2,3-b]pyridin-3-yl)pyrrolidin-1-yl)benzo[d]oxazol-2-yl)-6-oxa-3-azabicyclo[3.1.1]heptane], the pEC50 was 5.00 to 6.00.

The pEC50 is the EC50 on a negative log10 scale, so that one unit is a factor of ten.
